# Laboratory results published in patent US10391134B2, “Anti-candida compositions and uses thereof” (PharmAlp SA, priority 2014, dated 2019).
# What was measured:
# Assay type in all cases: cell-based
# [1] = system: human vaginal epithelial cells; assay: Neutral red screening of human cytotoxicity; settings: 24 h incubation; positive control and validation component
# Protocol: Potential cytotoxicity of the extracts was assayed in the neutral red-screening test using human vaginal epithelial cells at 80% confluence corresponding to 2*10^5 cells per well of 96 wells as follows:
# The extracts freshly extracted and stored once frozen were incubated for 24 h with the epithelial cells at different concentrations. At the end of the experiment the cells were washed 3× and incubated with Neutral Red (NR) medium (50 μg/ml) for 3 hours at 37° C., 5.0% CO2/air. A water solution at 0.5% ethanol was used as negative control (present in all samples). […] Cells were then washed and NR quantified. 100% staining intensity indicate intact lysosomal activity. 0% indicates little to no survival of human cells. Results were analysed according to the Hill function. IC50 or concentrations with highest impairment of cell survival were determined.
# Desorb solution was prepared in a ratio of water-ethanol-acetic acid glacial (49:50:1; v:v) during 20 min with shaking. Wavelength used for spectrophotometric reading of NR optical density was 540 nm. Test Criteria were that the differences between VC mean; R2>0.85; Point >0%<100%. The results are presented on FIG. 4.
# [2] = system: Candida albicans adhesion on human vaginal epithelial cells (End1/E6E7); assay: Inhibitory activity on Candida adhesion on human vaginal epithelial cells
# Protocol: A tissue culture plate of 24 wells was prepared with vaginal epithelial cells. 0.5 ml of a culture of 10^5 cells/ml in keratinocyte SFM were put in each well of a 24-well plate and incubated for 2 days at 37° C. and 5% CO2. Each well was filled (after taking away the vaginal cells growth media) with 1 ml C. albicans culture of 5·10^6 cfu/ml mixed with test substance. As control, the solvent of each test substance was also tested. The plate was incubated at 37° C. for 6 h or 2 h ([…] for Example 2, 2 h for Example 4), permitting Candida cells to adhere to vaginal cells. After incubation the Candida culture was pipetted away from each well, which were then washed 3 times with 0.5 ml PBS. The epithelial cells-Candida layer was treated with a 0.05% trypsin solution (concentration of 1 ml/25 cm^2), which was then neutralized by addition of DMEM with 10% FCS. […] The obtained cell solution was diluted and analyzed with pour plate method (Manuel Suisse des denrées alimentaires, Chapitre 56, 2000, revision partielle 2004): 1 ml of the appropriate dilution was pipetted into an empty Petri dish and about 15-20 ml of SDA, cooled down to 45-50° C., poured over it.
# After 24 h incubation at 37° C. the colonies were counted and the result (in cfu/ml) multiplied 1.5 times to obtain the number of adhered cell in each well. […]
# [3] = system: Candida albicans cells (ATCC MYA-2876); assay: Candida growth test (MIC, visual turbidity score)
# Protocol: Candida albicans cells (ATCC MYA-2876) were incubated in SB (Sabouraud broth, Biolife 4020002) for 24 h at 30° C. and 150 rpm. The obtained culture was enumerated with a Neubauer Improved count chamber and concentration adjusted to 2.5·10^3 cfu/ml by dilution with sterile SB. Vaginal cells (End1/E6E7, ATCC CRL-2615) have been grown in Keratinocyte SFM (Gibco 17005-42) with 0.1 ng/ml human recombinant EGF (Gibco 10450-013), 0.05 mg/ml bovine pituitary extract (Gibco 13028-014) and additional calcium chloride 44.1 mg/L according to instructions by the provider, with media change every 2-3 days.
# Minimal inhibitory concentration (MIC) of the plant extracts and antifungal substances was accomplished through tissue culture plates of 96 wells with flat bottom (Becton Dickinson). In each well 100 μl of the 2.5·10^3 cfu/ml Candida albicans culture obtained as described above in SB was mixed with 100 μl plant extract of different concentrations (0.025, 0.083, 0.25, 0.83, 2.5 and 8.3 mg/ml). Together with each dilution series a blank well was prepared with 100 μl culture and 100 μl of 5% ethanol-water solution. Fluconazole (Sigma, F8929) has been taken as positive control. Fluconazole solutions of different concentrations (4, 16, 32, 65, 650 μg/ml) have been freshly prepared prior testing. A well with only broth (100 μl) plus water (100 μl) and a well with broth plus plant extract (100 μl) were also prepared for color control. The plate was then incubated at 37° C. for 24 h and 48 h.
# The evaluation of the growth inhibitory activities was conducted by visual observation of the turbidity of the wells and by attribution of a score from 0 (no growth) to 4 (maximal growth, similar to control well). MIC value of a substance is defined as the concentration which permits to reach a score of less than […]. […] In fact, the score of 2 represents an inhibition of Candida concentrations of about 80%. Results are presented on FIG. 2. […]
molecule,measurement,setting,value
CCCCCCCCCCCCOS(=O)(=O)[O-].[Na+] [SDS],IC50 neutral red cytotoxicity,[1],8 to 25 µg/mL
OC(Cn1cncn1)(Cn1cncn1)c1ccc(F)cc1F [fluconazole],"Adhesion of Candida, average value (100% = control)","[2]; Example 1, fluconazole at 1 mg/ml, 6 hour incubation",100%
same,"Stability of the growth inhibition effect, 24 h versus 48 h","[3]; Example 1, 24 h and 48 h of treatment",maximal effect at 24 h and reduced effects at 48 h
same,"Candida growth score (arbitrary unit, 0 no growth to 4 maximal growth)","[3]; after 48 h incubation, 2 separate runs",2 to 3 arbitrary unit
same,Inhibition of Candida growth,"[3]; all 5 concentrations applied (4, 16, 32, 65, 650 μg/ml)",inhibited Candida growth to a similar degree
Pepstatin A,% inhibition (adhesion of Candida albicans to human epithelial cells),"[2]; Table 3, at 1 μM",5 (at 1 μM) %
